Assay results taken from patent publication EP0234500A1, “Antiasthma inhalation compositions” (RORER PHARMACEUTICAL CORPORATION, priority 1986, dated 1987).
Several values for one entry are separate records, joined by “and”; a condition that tells them apart may be missing. Equal values may be shown once. Where a name gives a salt, the structure may show the parent alone.

Key:
[1] = Solubility of the active compound in ethanol/propellant mixture; format: physicochemical
Description: Other aspects of the present invention include solubility of the active compound in the pharmaceutically acceptable solvent, ethyl alcohol, the maintainance in solution of the active compound upon the addition of the propellant(s) and the particle size distribution of the aerosol preparation. The compounds of the present invention are soluble in ethyl alcohol.

[2] = system: Male Hartley guinea pigs; assay: Antigen-induced bronchoconstriction in ovalbumin-immunized anesthetized guinea pigs, aerosol administration; format: in vivo; details: 1% aerosol formulation, 25 actuations, approximately 5 mg (or 15 mg/kg), 15 minutes before ovalbumin 0.3 mg/kg i.v. challenge, n=7
Description: Male Hartley guinea pigs (200-250 g) were immunized with ovalbumin, 2.7 mg/kg i.p., followed in 30 minutes by Salmonella typhosa lipopolysaccharide, 20 ug i.p. Thirteen to fifteen days after immunization, each guinea pig was anesthetized with sodium pentobarbital, 50 mg/kg i.p., and a jugular vein and the trachea were cannulated. The animal was mechanically ventilated (80 breaths/min. 2ml/breath). Needle electrodes were attached to the limbs for monitoring ECG and heart rate. Airway pressure was measured with a Validyne pressure transducer (+ 20 cm H20 range) connected to the tracheal cannula. Airway pressure for each breath was recorded on a polygraph, while mean values over 6-second periods were printed on a digital terminal. […] All bronchoconstrictor responses to the second dose of LTD4 and to antigen were quantified as the percent increase in airway pressure over the baseline value. The normalized response of each animal is expressed as the ratio of antigen-induced to LTD4-induced bronchoconstriction. Mean values and standard errors of these ratios in control and drug-treated groups were calculated and compared statistically by Student's t-test. The activity of each drug is expressed as the percent inhibition of the mean control response.

[3] = Particle size distribution and MMAD of aerosol formulations; format: physicochemical; set-up: MMAD**: unit: micrometers (µm); details: for MMAD**: Mass Median Aerodynamic Diameter; for Part. Size (mg collected) per 20 actuations 4 µ*: Particle Size Limit = 4 µ to 8 µ; for mg at 1-8 µ: per 20 actuations
Description: Other essential properties of aerosol formulations are the particle size distribution and the related mass median aerodynamic diameter of the particles. It is generally required that the effective range for inahalation products be approximately in the range of 1 to 8 micrometers (um). The particle size distribution helps, inter alia, to reduce loss on impaction on the tongue and oropharynx of the particles expelled from the pressurized container.

[4] = Compound of Example 1 1.0, ETOH 5.0, P 114 47, P 12 47, hydrochloride
[5] = Compound of Example 1 1.0, ETOH 10.0, P 114 25.0, P 12 75.0
[6] = Compound of Example 1 1.0, ETOH 10.0, P 114 35, P 12 53
[7] = Compound of Example 1 1.0, ETOH 10.0, P 114 44.5, P 12 44.5
[8] = Compound of Example 1 1.0, ETOH 10.0, P 114 44.5, P 12 44.5, hydrochloride
[9] = Compound of Example 1 2.0, ETOH 10.0, P 114 44.00, P 12 44.00
[10] = Compound of Example 1 2.5, ETOH 10.0, P 114 43.75, P 12 43.75, hydrochloride
[11] = Compound of Example 1 3.0, ETOH 10.0, P 114 43.5, P 12 43.5
[12] = Compound of Example 1 3.5, ETOH 10.0, P 114 43.25, P 12 43.25
[13] = Compound of Example 1 5.0, ETOH 30.0, P 114 32.5, P 12 32.5
[14] = Compound of Example 1 6.0, ETOH 20.0, P 114 29.6, P 12 44.4
[15] = Compound of Example 1 9.0, ETOH 30.0, P 114 17, P 12 44

SMILES: CCCCCC(O)c1cccc(OCc2ccc3ccccc3n2)c1 (stereo not drawn) [Compound of Example 1, 2-(3-(l-Hydroxyhexyl)phenoxymethyl)quinoline hydrochloride]
- Solubility at 24°C ([1]; Ethanol (W/W) 5%, Propellants 114/12 (50/50 Mixture) 93.2%): 1.8%
- Solubility at 24°C ([1]; Ethanol (W/W) 10%, Propellants 114/12 (50/50 Mixture) 86.0%): 4.0%
- Solubility at 24°C ([1]; Ethanol (W/W) 20%, Propellants 114/12 (50/50 Mixture) 74.0%): 6.0%
- Solubility at 24°C ([1]; Ethanol (W/W) 30%, Propellants 114/12 (50/50 Mixture) 61.0%): 9.0%
- percent inhibition of the mean control response [2]: 53%
- normalized postchallenge increase in PAW (ratio of antigen-induced to LTD4-induced bronchoconstriction), mean response ([2]; mean and standard error): 0.60 ± 0.16
- Part. Size (mg collected) per 20 actuations 1 µ [3, 4]: 0.448 mg and 0.607 mg and 0.667 mg
- Part. Size (mg collected) per 20 actuations 2 µ [3, 4]: 0.973 mg and 1.529 mg and 1.532 mg
- Pressure PSI [3, 4]: 58.7 PSI and 60.2 PSI
- cum % 1-8 µ [3, 4]: 57.74% and 60.73% and 66.20%
- Part. Size (mg collected) per 20 actuations 1 µ [3, 5]: 0.499 mg
- Part. Size (mg collected) per 20 actuations 2 µ [3, 5]: 1.167 mg
- cum % 1-8 µ [3, 5]: 45.36%
- Part. Size (mg collected) per 20 actuations 1 µ [3, 6]: 0.503 mg
- Part. Size (mg collected) per 20 actuations 2 µ [3, 6]: 1.201 mg
- Pressure PSI [3, 6]: 56 PSI
- cum % 1-8 µ [3, 6]: 55.41%
- Pressure PSI [3, 7]: 49.3 PSI
- Part. Size (mg collected) per 20 actuations 1 µ [3, 8]: 0.498 mg and 0.479 mg
- Part. Size (mg collected) per 20 actuations 2 µ [3, 8]: 1.243 mg and 0.868 mg
- cum % 1-8 µ [3, 8]: 53.70% and 57.26%
- Part. Size (mg collected) per 20 actuations 1 µ [3, 9]: 0.661 mg
- Part. Size (mg collected) per 20 actuations 2 µ [3, 9]: 1.373 mg
- cum % 1-8 µ [3, 9]: 46.71%
- Part. Size (mg collected) per 20 actuations 1 µ [3, 10]: 0.514 mg and 0.528 mg and 0.638 mg
- Part. Size (mg collected) per 20 actuations 2 µ [3, 10]: 1.380 mg and 1.435 mg and 1.106 mg
- cum % 1-8 µ [3, 10]: 44.86% and 44.36% and 42.87%
- Part. Size (mg collected) per 20 actuations 1 µ [3, 11]: 0.538 mg
- Part. Size (mg collected) per 20 actuations 2 µ [3, 11]: 1.478 mg
- cum % 1-8 µ [3, 11]: 40.15%
- Part. Size (mg collected) per 20 actuations 1 µ [3, 12]: 0.583 mg
- Part. Size (mg collected) per 20 actuations 2 µ [3, 12]: 1.236 mg
- cum % 1-8 µ [3, 12]: 35.00%
- Part. Size (mg collected) per 20 actuations 1 µ [3, 13]: 0.336 mg
- Part. Size (mg collected) per 20 actuations 2 µ [3, 13]: 0.852 mg
- Pressure PSI [3, 13]: 52 PSI
- cum % 1-8 µ [3, 13]: 32.09%
- Part. Size (mg collected) per 20 actuations 1 µ [3, 14]: 0.447 mg
- Part. Size (mg collected) per 20 actuations 2 µ [3, 14]: 0.901 mg
- Pressure PSI [3, 14]: 52.0 PSI
- cum % 1-8 µ [3, 14]: 28.77%
- Part. Size (mg collected) per 20 actuations 1 µ [3, 15]: 0.394 mg
- Part. Size (mg collected) per 20 actuations 2 µ [3, 15]: 0.818 mg
- Pressure PSI [3, 15]: 53.7 PSI
- cum % 1-8 µ [3, 15]: 28.79%
- MMAD** [3, 4]: 3.0 and 2.8
- MMAD** [3, 5]: 4.0
- MMAD** [3, 6]: 3.5
- MMAD** [3, 7]: 3.0
- MMAD** [3, 9]: 3.8
- MMAD** [3, 10]: 3.8 and 4.0
- MMAD** [3, 11]: 4.0
- MMAD** [3, 12]: 4.5
- MMAD** [3, 13]: 6.0
- MMAD** [3, 14]: 5.75
- MMAD** [3, 15]: 6.0
- Part. Size (mg collected) per 20 actuations 4 µ* [3, 4]: 2.091 mg and 2.522 mg and 2.481 mg
- Part. Size (mg collected) per 20 actuations 4 µ* [3, 5]: 1.611 mg
- Part. Size (mg collected) per 20 actuations 4 µ* [3, 6]: 2.283 mg
- Part. Size (mg collected) per 20 actuations 4 µ* [3, 8]: 1.871 mg and 1.715 mg
- Part. Size (mg collected) per 20 actuations 4 µ* [3, 9]: 2.772 mg
- Part. Size (mg collected) per 20 actuations 4 µ* [3, 10]: 3.121 mg and 3.103 mg and 2.744 mg
- Part. Size (mg collected) per 20 actuations 4 µ* [3, 11]: 2.657 mg
- Part. Size (mg collected) per 20 actuations 4 µ* [3, 12]: 3.546 mg
- Part. Size (mg collected) per 20 actuations 4 µ* [3, 13]: 2.084 mg
- Part. Size (mg collected) per 20 actuations 4 µ* [3, 14]: 2.879 mg
- Part. Size (mg collected) per 20 actuations 4 µ* [3, 15]: 2.381 mg
- mg at 1-8 µ [3, 4]: 3.512 mg and 4.658 mg and 4.680 mg
- mg at 1-8 µ [3, 5]: 3.277 mg
- mg at 1-8 µ [3, 6]: 3.987 mg
- mg at 1-8 µ [3, 8]: 3.612 mg and 3.062 mg
- mg at 1-8 µ [3, 9]: 4.806 mg
- mg at 1-8 µ [3, 10]: 5.015 mg and 5.066 mg and 4.488 mg
- mg at 1-8 µ [3, 11]: 4.673 mg
- mg at 1-8 µ [3, 12]: 5.365 mg
- mg at 1-8 µ [3, 13]: 3.272 mg
- mg at 1-8 µ [3, 14]: 4.227 mg
- mg at 1-8 µ [3, 15]: 3.593 mg
